# Patent US20240091244A1, “PHARMACEUTICAL COMPOSITIONS COMPRISING PICROSIDE” (SAVA HEALTHCARE LIMITED, priority 2021, published 2024)
# B1: G-CSF: Granulocyte Colony Stimulating Factor, FDA approved drug for treating severe neutropenia; comparator (protein, UniProt P09919 31-207, looked up)
# Granulocyte …: TPLGPASSLPQSFLLKCLEQVRKIQGDGAALQEKLVSECATYKLCHPEELVLLGHSLGIPWAPLSSCPSQALQLAGCLSQLHSGLFLYQGLLQALEGISPELGPTLDTLQLDVADFATTIWQQMEELGMAPALQPTQGAMPAFASAFQRRAGGVLVASHLQSFLEVSYRVLRHLAQP
# Tests used:
# [1] = system: mice with cyclophosphamide induced neutropenia; test: Administration of Picroside I / Picroside II (injectable, subcutaneous) to mice with cyclophosphamide induced neutropenia; type: in vivo, Swiss albino mice; settings: for changes in body weight / clinical signs of toxicity and mortality: 1 mg/mouse/day subcutaneous for 5 days; for Total leukocyte count on Day 10 as compared to Group 2 / neutrophil count on Day 10 as compared to Group 2 / % Neutrophil (day 10) / neutrophil count compared with Group 1 (Normal control): 1 mg/mouse/day subcutaneous; for Total leukocyte count on Day 10 as compared to Group 2 / neutrophil count on Day 10 as compared to Group 2 / % Neutrophil (day 10): day 5 to day 10; for % Neutrophil (day 10) / neutrophil count compared with Group 1 (Normal control): day 10; for neutrophil count compared with Group 1 (Normal control): P<0.01; for % Neutrophil (day 3): day 3 after cyclophosphamide 150 mg/kg ip, before treatment (baseline of the group); for reversal of cyclophosphamide induced neutropenia: injection
# Experimental: (§1) In-house bred Swiss albino mice were housed under standard laboratory conditions, such as, air-conditioned with adequate fresh air supply (air changes 12-15 per hour), room temperature of 21.1-23.2° C. and relative humidity of 55-69%, with 12 hours light and 12 hours dark cycle were strictly maintained in the experimental room. The mice were acclimatized for a minimum period of seven days to laboratory conditions.
# (§2) The selected Swiss albino mice were randomized into four groups based on body weight, each group comprising of 6 mice. Group 2 and 3, 4 animals were treated with 150 mg/kg of cyclophosphamide through intraperitoneal route on Day 0 to initiate inducing neutropenia. On Day 3, the animals of group 2, 3 and 4, reflected the cyclophosphamide induced neutropenication when compared with Group 1 (Control) mice. On day 4, mice from Groups 2, 3 and 4 were again injected with a single dose of 100 mg/kg of cyclophosphamide. Total and differential count (neutrophils, lymphocytes, and monocytes) was recorded on day 3. The neutrophil count on day 3 was compared between groups using One-way ANOVA followed by Dunnett's test or student ‘t’ test. P<0.05 was considered statistically significant.
# Cyclophosphamide related neutropenia was induced in mice subjects using method according to Example 6. Injectable composition was prepared using the method according to Example 5. The Picroside I composition was administered through subcutaneous route at a dose of 1 mg/mouse/day to the animals in Group 3 for 5 days respectively starting from day 5 ending at day 10. Picroside II composition was administered through subcutaneous route at a dose of 1 mg/mouse/day to the animals in Group 4 for 5 days respectively starting from day 5 ending at day 10. On day 10, again blood was collected to count the total leucocyte count and differential count (neutrophils, lymphocytes, and monocytes) manually. The neutrophil count on day 10 was compared between groups using One-way ANOVA followed by Dunnett's test or student ‘t’ test. P<0.05 was considered statistically significant.
# [2] = system: cyclophosphamide induced hepatotoxicity; test: Effect in cyclophosphamide induced hepatotoxicity (AST and ALT levels); type: in vivo, Swiss albino mice; settings: for ALT (IU/L) / AST (IU/L): day 5 to day 10, Picroside I 1 mg/mouse/day, G-CSF 2 μg/mouse/day, cyclophosphamide treated mice
# Experimental: as §2
# (§3) Cyclophosphamide related neutropenia was induced in mice subjects using method according to Example 6. Group 1 was marked vehicle control group, Group 2 was marked cyclophosphamide control, Group 3 was marked treated with Picroside I and Group 4 was marked treated with G-CSF treated. The Picroside I composition was administered through subcutaneous route at a dose of 1 mg/mouse/day to the animals in Group 3 for 5 days respectively starting from day 5 ending at day 10. The G-CSF composition was administered through subcutaneous route at a dose of 2 μg/mouse/day to the animals in Group 4 for 5 days respectively starting from day 5 ending at day 10. On day 10, again blood was collected to count the total leucocyte count and differential count (neutrophils, lymphocytes, and monocytes) manually. The neutrophil count on day 10 was compared between groups using One-way ANOVA followed by Dunnett's test or student ‘t’ test. P<0.05 was considered statistically significant. Additionally, hepatotoxicity was observed by investigating ALT and AST levels.
# [3] = system: mice with cyclophosphamide induced neutropenia; test: Comparative administration of Picroside I and G-CSF to mice with cyclophosphamide induced neutropenia; type: in vivo, Swiss albino mice; settings: for % Neutrophil (day 0): day 0, before cyclophosphamide (baseline of the group); for % Neutrophil (day 3): day 3 after cyclophosphamide, before treatment; for % Neutrophil (day 10): Picroside I 1 mg/mouse/day, G-CSF 2 μg/mouse/day
# Experimental: as §1, §2, §3
# [4] = system: mice with cyclophosphamide induced neutropenia; test: Administration of Picroside I (oral tablets) to mice with cyclophosphamide induced neutropenia; type: in vivo, Swiss albino mice; settings: for Neutrophil (10^9/L) (day 10) / WBC (10^9/L) (day 10): day 5 to day 10; for Neutrophil (10^9/L) (day 3) / WBC (10^9/L) (day 3): day 3, before treatment (baseline)
# Experimental: as §1, §2
# Cyclophosphamide related neutropenia was induced in mice subjects using method according to Example 6. Oral tablet composition was prepared using the method according to Example 4. The Picroside I composition was administered orally at a dose of 2 mg/mouse/day (2 tablets) to the animals in Group 1 and Group 2 for 5 days respectively starting from day 5 ending at day 10. For a comparative study, oral composition was administered using distilled water and PEG. Specifically, oral tablets were administered in distilled water to mice in Group 1 and in 5% PEG to mice in Group 2. On day 10, again blood was collected to count the total leucocyte count and differential count (neutrophils, lymphocytes, and monocytes) manually. The neutrophil count on day 10 was compared between groups using One-way ANOVA followed by Dunnett's test or student ‘t’ test. P<0.05 was considered statistically significant.
# [5] = Stability analysis of injectable composition of Picroside I and 2.5% PEG400 by HPLC quantitative analysis; type: physicochemical; settings: 1 mg Picroside I in 2.5% PEG400; for % Result (1 month): HPLC 220 nm
# Experimental: The purified Picroside I prepared by the methods according to Example 1, 2, and 3 was used for the said injection composition. Injection preparation was prepared by dissolving 1 mg Picroside I in solvent, controlling pH to about 4-land then filling in ampules followed by subsequent sterilizing by conventional injection preparation method. For comparative compositions, different solvents such as methanol, 2.5% PEG400, 5% PEG400, 5% DMSO, 5% ethyl lactate, and 1.4% propylene glycol were used for Picroside I solubility.
# The solutions were kept for sonication for 15 min and left the solutions stand at room temperature for 1 hour. HPLC was used for quantitative analysis.
# Three compositions of 1 mg Picroside I and 2.5% PEG400 were kept for sonication for 15 min and left to stand at room temperature (RT), 2-8° C. and 40° C., 75% RH for 1 month. and injected (20 μL) into HPLC at 220 nm for quantitative analysis.
# [6] = 1 mg/mouse/day subcutaneous, p<0.001
# [7] = Picroside I 1 mg/mouse/day vs G-CSF 2 μg/mouse/day, subcutaneous
# [8] = 2 mg/mouse/day oral, in distilled water (Group 1) and in 5% PEG (Group 2)
# [9] = Group 1, 2 mg/mouse/day oral (2 tablets) in distilled water
# [10] = Group 1, tablets in distilled water
# [11] = Group 2, 2 mg/mouse/day oral (2 tablets) in 5% PEG
molecule,measurement,setting,value
COc1cc(C(=O)O[C@H]2[C@@H]3C=CO[C@@H](O[C@@H]4O[C@H](CO)[C@@H](O)[C@H](O)[C@H]4O)[C@@H]3[C@@]3(CO)O[C@@H]23)ccc1O [Picroside II],changes in body weight,[1],no treatment related changes in body weight
same,clinical signs of toxicity and mortality,[1],no clinical signs of toxicity and mortality
same,Total leukocyte count on Day 10 as compared to Group 2,[1],significant increase
same,neutrophil count on Day 10 as compared to Group 2,[1],significant increase
same,% Neutrophil (day 10),[1],32.83%
same,neutrophil count compared with Group 1 (Normal control),[1],increased neutrophil count significantly
same,% Neutrophil (day 3),[1],21.83%
same,reversal of cyclophosphamide induced neutropenia,[1],significantly reverses
O=C(/C=C/c1ccccc1)OC[C@H]1O[C@@H](O[C@@H]2OC=C[C@H]3[C@H](O)[C@@H]4O[C@]4(CO)[C@@H]23)[C@H](O)[C@@H](O)[C@@H]1O [Picroside I],ALT levels when compared to the Group 2,[2]; [6],significant reversal
same,AST levels when compared to the Group 2,[2]; [6],significant reversal
same,decrease in AST and ALT relative to G-CSF treatment,[2]; [7],comparable
same,ALT (IU/L),[2]; subcutaneous,37.16 IU/L
same,AST (IU/L),[2]; subcutaneous,50.32 IU/L
same,changes in body weight,[1],no treatment related changes in body weight
same,clinical signs of toxicity and mortality,[1],no clinical signs of toxicity and mortality
same,Total leukocyte count on Day 10 as compared to Group 2,[1],significant increase
same,neutrophil count on Day 10 as compared to Group 2,[1],significant increase
same,% Neutrophil (day 10),[1],32.67%
same,neutrophil count compared with Group 1 (Normal control),[1],increased neutrophil count significantly
same,% Neutrophil (day 3),[1],20.83%
same,reversal of cyclophosphamide induced neutropenia,[1],significantly reverses
same,effect on cyclophosphamide induced decrease in % neutrophil,"[3]; 1 mg/mouse/day subcutaneous, day 5 to day 10",alleviation
same,observed changes in % neutrophil relative to G-CSF treatment,[3]; [7],comparable to that of G-CSF treatment
same,% Neutrophil (day 0),[3],46.00%
same,% Neutrophil (day 3),[3],6.600%
same,% Neutrophil (day 10),"[3]; subcutaneous, day 5 to day 10",23.90%
same,changes in body weight,[4]; 2 mg/mouse/day oral for 5 days,no treatment related changes in body weight
same,clinical signs of toxicity and mortality,[4]; 2 mg/mouse/day oral for 5 days,no clinical signs of toxicity and mortality
same,Total leukocyte count on Day 10 as compared that on Day 3,[4]; [8],significant increase
same,neutrophil count on Day 10 as compared that on Day 3,[4]; [8],significant increase
same,Neutrophil (10^9/L) (day 10),[4]; [9],1.58 10^9/L
same,WBC (10^9/L) (day 10),[4]; [9],9.5 10^9/L
same,Neutrophil (10^9/L) (day 3),[4]; [10],0.38 10^9/L
same,WBC (10^9/L) (day 3),[4]; [10],1.75 10^9/L
same,Neutrophil (10^9/L) (day 10),[4]; [11],1.03 10^9/L
same,WBC (10^9/L) (day 10),[4]; [11],8.9 10^9/L
same,Neutrophil (10^9/L) (day 3),"[4]; Group 2, tablets in 5% PEG",0.31 10^9/L
same,WBC (10^9/L) (day 3),"[4]; Group 2, tablets in 5% PEG",2.01 10^9/L
same,reversal of cyclophosphamide induced neutropenia,[4]; oral tablets,significantly reverses
same,stability over a period of 1 month,"[5]; RT, 2-8° C. and 40° C., 75% RH",excellent stability
same,% Result (1 month),[5]; stored at 2-8° C. for 1 month,96.59%
same,% Result (1 month),"[5]; stored at 40° C., 75% RH for 1 month",86.89%
same,% Result (1 month),[5]; stored at RT for 1 month,102.33%
B1,ALT (IU/L),[2]; subcutaneous,36.17 IU/L
same,AST (IU/L),[2]; subcutaneous,50.54 IU/L
same,% Neutrophil (day 0),[3],46.10%
same,% Neutrophil (day 3),[3],6.700%
same,% Neutrophil (day 10),"[3]; subcutaneous, day 5 to day 10",28.20%
